Measured values from patent US20220168307A1, “TREATMENT OF SMA” (Hoffmann-La Roche Inc., priority 2019, published 2022).
Where “and” joins values, the source holds several entries; their conditions need not be identical. Identical values can stand only once. Entries after “also recorded” stand apart in the source; their conditions may differ. Like-named read-outs stand apart in the source and are kept apart here.

Tests used:
CYP2D6 [1] = target: T1, CYP2D6 (Homo sapiens, UniProt P10635)
CYP2C19 [2] = target: T2, CYP2C19 (Homo sapiens, UniProt P33261); test: in vitro; details: pooled human liver microsomes, pH 7.4, probe (S)-mephenytoin
T2 sequence (P33261 whole entry): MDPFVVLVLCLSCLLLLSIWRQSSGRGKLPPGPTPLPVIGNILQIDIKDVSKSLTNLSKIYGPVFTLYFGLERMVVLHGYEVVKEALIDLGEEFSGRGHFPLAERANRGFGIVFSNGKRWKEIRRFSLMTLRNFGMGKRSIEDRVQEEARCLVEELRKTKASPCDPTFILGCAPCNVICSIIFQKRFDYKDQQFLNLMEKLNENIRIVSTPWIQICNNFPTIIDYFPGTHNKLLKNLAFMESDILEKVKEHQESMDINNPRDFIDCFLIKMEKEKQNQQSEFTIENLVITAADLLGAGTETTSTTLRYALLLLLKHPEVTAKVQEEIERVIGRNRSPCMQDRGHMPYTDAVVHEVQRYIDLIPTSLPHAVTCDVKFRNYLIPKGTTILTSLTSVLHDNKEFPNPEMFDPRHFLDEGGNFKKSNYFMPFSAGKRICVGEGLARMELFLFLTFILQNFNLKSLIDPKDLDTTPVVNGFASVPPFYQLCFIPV

CYP2C19 [3] = target: T2, CYP2C19; test: Time-dependent inhibition (IC50 shift) of CYP2C19 in human liver microsomes; details: risdiplam up to 12.5 μM
CYP2C19 [4] = target: T2, CYP2C19; test: Direct inhibition of CYP2C19 ((S)-mephenytoin) in human liver microsomes
CYP2B6 [5] = target: T3, CYP2B6 (Homo sapiens, UniProt P20813); test: biochemical
T3 sequence (P20813 1-491): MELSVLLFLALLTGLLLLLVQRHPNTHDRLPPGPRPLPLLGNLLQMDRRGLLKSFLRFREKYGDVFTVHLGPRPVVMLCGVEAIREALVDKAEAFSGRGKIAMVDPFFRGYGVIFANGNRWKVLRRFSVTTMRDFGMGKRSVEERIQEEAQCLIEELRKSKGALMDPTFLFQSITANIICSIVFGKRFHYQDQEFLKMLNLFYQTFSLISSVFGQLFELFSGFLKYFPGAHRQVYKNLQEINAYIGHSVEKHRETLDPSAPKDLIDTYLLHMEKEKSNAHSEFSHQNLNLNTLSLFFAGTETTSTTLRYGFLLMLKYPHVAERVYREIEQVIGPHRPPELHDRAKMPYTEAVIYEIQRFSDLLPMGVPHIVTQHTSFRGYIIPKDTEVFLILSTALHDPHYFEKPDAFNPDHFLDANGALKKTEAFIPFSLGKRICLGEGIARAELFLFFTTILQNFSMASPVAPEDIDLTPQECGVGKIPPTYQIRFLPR

CYP2D6 [6] = target: T1, CYP2D6; test: Time-dependent inhibition (IC50 shift) of CYP2D6 in human liver microsomes; type: in vitro ADME; details: risdiplam up to 12.5 μM
Protocol: Donors CMV negative for serology are unm
All incubations were conducted in duplicate.
% remaining=(C+I/C^−I)*100

CYP2C9 [7] = target: T4, CYP2C9 (Homo sapiens, UniProt P11712); test: Direct inhibition of CYP2C9 (diclofenac) in human liver microsomes
T4 sequence (P11712 whole entry): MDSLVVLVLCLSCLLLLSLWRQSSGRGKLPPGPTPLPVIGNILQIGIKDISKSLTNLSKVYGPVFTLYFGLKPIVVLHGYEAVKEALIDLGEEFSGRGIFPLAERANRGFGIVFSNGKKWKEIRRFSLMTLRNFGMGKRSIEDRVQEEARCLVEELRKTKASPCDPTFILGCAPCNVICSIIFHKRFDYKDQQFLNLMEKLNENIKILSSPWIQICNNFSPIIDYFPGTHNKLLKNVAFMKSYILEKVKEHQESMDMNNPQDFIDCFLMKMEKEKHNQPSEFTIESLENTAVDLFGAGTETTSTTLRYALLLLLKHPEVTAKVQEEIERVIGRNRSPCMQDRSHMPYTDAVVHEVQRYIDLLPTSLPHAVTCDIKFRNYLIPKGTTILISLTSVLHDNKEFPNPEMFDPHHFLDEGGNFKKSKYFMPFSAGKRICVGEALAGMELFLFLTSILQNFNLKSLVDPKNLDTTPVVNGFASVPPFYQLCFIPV

CYP2B6 [8] = target: T3, CYP2B6; test: Direct inhibition of CYP2B6 (bupropion) in human liver microsomes
CYP2C9 [9] = target: T4, CYP2C9; test: in vitro; details: pooled human liver microsomes, pH 7.4, probe diclofenac
CYP3A4 = CYP3A4 (Homo sapiens, UniProt P08684); test: Direct inhibition of CYP3A4 (midazolam and testosterone) in human liver microsomes; type: in vitro ADME; set-up: rows headed: % Control activity at; substrate Midazolam; concentration not given; duplicates; % Control activity at; substrate Testosterone; % Remaining; other: direct; CYP3A4-Midazolam Activity; risdiplam 0.20 μM; risdiplam 0.10 μM; dupl; details: for % Remaining / maximal inhibition: direct; for maximal inhibition: risdiplam tested up to 12.5 μM; for activity: pH 7.4, direct inhibition, read-out: % Control activity at
Chain of CYP3A4 (P08684 2-503): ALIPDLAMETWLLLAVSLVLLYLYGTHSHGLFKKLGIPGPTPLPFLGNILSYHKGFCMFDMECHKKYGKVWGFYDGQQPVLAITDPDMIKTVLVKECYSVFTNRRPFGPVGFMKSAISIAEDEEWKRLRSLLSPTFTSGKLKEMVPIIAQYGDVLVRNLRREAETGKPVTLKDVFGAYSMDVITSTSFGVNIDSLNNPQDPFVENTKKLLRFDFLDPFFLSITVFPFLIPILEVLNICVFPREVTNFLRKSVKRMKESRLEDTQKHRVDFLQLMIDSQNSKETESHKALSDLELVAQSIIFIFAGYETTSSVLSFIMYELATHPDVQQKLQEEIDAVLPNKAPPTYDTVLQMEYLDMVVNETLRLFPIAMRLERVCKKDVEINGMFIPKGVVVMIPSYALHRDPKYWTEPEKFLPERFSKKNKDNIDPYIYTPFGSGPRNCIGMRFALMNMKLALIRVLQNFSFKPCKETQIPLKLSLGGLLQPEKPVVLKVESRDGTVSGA

CYP1A2 [10] = target: T5, CYP1A2 (Homo sapiens, UniProt P05177); test: biochemical
T5 sequence (P05177 1-516): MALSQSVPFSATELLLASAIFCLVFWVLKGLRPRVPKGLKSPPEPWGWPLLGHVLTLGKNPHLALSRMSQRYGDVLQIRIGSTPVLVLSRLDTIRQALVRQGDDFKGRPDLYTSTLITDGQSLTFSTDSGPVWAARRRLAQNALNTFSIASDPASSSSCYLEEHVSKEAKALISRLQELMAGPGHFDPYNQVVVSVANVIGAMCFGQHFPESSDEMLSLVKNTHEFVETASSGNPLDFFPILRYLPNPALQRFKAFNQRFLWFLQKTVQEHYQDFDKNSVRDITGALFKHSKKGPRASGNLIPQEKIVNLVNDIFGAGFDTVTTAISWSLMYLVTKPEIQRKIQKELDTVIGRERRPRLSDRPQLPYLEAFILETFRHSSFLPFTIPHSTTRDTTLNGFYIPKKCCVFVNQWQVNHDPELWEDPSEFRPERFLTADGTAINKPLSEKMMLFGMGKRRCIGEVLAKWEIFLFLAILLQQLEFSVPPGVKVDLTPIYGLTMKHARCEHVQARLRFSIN

CYP1A2 [11] = target: T5, CYP1A2; test: Direct inhibition of CYP1A2 (phenacetin) in human liver microsomes
CYP2B6 [12] = target: T3, CYP2B6; details: risdiplam up to 12.5 μM

T1 sequence (P10635 whole entry): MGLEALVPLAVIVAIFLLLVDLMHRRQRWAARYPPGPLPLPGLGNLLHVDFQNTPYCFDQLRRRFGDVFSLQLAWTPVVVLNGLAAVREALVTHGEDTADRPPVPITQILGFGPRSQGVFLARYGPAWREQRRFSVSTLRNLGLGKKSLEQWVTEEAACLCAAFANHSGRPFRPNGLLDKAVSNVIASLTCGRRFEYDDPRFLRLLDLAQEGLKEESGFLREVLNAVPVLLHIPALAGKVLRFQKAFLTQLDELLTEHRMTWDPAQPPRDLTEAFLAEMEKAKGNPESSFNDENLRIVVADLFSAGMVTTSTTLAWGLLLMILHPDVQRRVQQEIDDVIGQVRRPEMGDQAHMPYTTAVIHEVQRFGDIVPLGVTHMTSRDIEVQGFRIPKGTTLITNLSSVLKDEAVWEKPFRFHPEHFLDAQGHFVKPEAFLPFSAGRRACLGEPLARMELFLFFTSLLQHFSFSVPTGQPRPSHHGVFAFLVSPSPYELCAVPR

For Cc1cn2nc(-c3cc(=O)n4cc(N5CCNC6(CC6)C5)ccc4n3)cc(C)c2n1 [risdiplam, 7-(4,7-diazaspiro[2.5]octan-7-yl)-2-(2,8-dimethylimidazo[1,2-b]pyridazin-6-yl)pyrido[1,2-a]pyrimidin-4-one], the “% Control activity at” value (CYP2D6 [1]; direct inhibition, substrate Dextromethorphan, concentration not given, duplicates) was 95%, the “reversible (direct) inhibition (in words)” value (CYP2D6 [1]; risdiplam up to 12.5 μM) was “did not show any significant reversible or time-dependent inhibition; also recorded: No significant reversible or time-dependent inhibition; also recorded: No significant reversible inhibition; also recorded: low potential to cause direct or time-dependent inhibition” and the activity (CYP2C19 [2]) was 102%. For the same molecule, the “time-dependent inhibition (in words)” value (CYP2C19 [3]) was “did not show any significant reversible or time-dependent inhibition; also recorded: No significant reversible or time-dependent inhibition; also recorded: No significant time-dependent inhibition; also recorded: low potential to cause direct or time-dependent inhibition”, the “% Control activity at” value (CYP2C19 [4]; direct inhibition, substrate (S)-Mephenytoin, concentration not given, duplicates) was 97% and the “reversible (direct) inhibition (in words)” value (CYP2C19 [4]; risdiplam up to 12.5 μM) was “did not show any significant reversible or time-dependent inhibition; also recorded: No significant reversible or time-dependent inhibition; also recorded: No significant reversible inhibition; also recorded: low potential to cause direct or time-dependent inhibition”. For the same molecule, the IC50 (CYP2B6 [5]) was > 12.5 µM, the “time-dependent inhibition (in words)” value (CYP2D6 [6]) was “did not show any significant reversible or time-dependent inhibition; also recorded: No significant reversible or time-dependent inhibition; also recorded: No significant time-dependent inhibition; also recorded: low potential to cause direct or time-dependent inhibition” and the “% Control activity at” value (CYP2C9 [7]; direct inhibition, substrate Diclofenac, concentration not given, duplicates) was 82%. The “reversible (direct) inhibition (in words)” value (CYP2C9 [7]; risdiplam up to 12.5 μM) was “did not show any significant reversible or time-dependent inhibition; also recorded: No significant reversible or time-dependent inhibition; also recorded: No significant reversible inhibition; also recorded: low potential to cause direct or time-dependent inhibition”, the “% Control activity at” value (CYP2B6 [8]; direct inhibition, substrate Bupropion, concentration not given, duplicates) was 94% and the “reversible (direct) inhibition (in words)” value (CYP2B6 [8]; risdiplam up to 12.5 μM) was “did not show any significant reversible or time-dependent inhibition; also recorded: No significant reversible or time-dependent inhibition; also recorded: No significant reversible inhibition; also recorded: low potential to cause direct or time-dependent inhibition”. The activity (CYP2C9 [9]) was 83%, the “% Control activity at” value (CYP3A4; direct inhibition, substrate Testosterone, concentration not given, duplicates) was 46% and the “% Remaining” value (CYP3A4; CYP3A4-Midazolam Activity, risdiplam 0.10 μM, duplicates) was 100% and 96%. For the same molecule, the “% Remaining” value (CYP3A4; CYP3A4-Midazolam Activity, risdiplam 0.20 μM, duplicates) was 99% and 102%, the “% Remaining” value (CYP3A4; CYP3A4-Midazolam Activity, risdiplam 0.50 μM, duplicates) was 101% and 100% and the “% Remaining” value (CYP3A4; CYP3A4-Midazolam Activity, risdiplam 1.3 μM, duplicates) was 108% and 91%. The “% Remaining” value (CYP3A4; CYP3A4-Midazolam Activity, risdiplam 3.2 μM, duplicates) was 94% and 97%, the “% Remaining” value (CYP3A4; CYP3A4-Midazolam Activity, risdiplam 8.0 μM, duplicates) was 84% and 83% and the “% Remaining” value (CYP3A4; CYP3A4-Midazolam Activity, risdiplam 12.5 μM, duplicates) was 72%. For the same molecule, the “% Remaining” value (CYP3A4; CYP3A4-Testosterone Activity, risdiplam 0.10 μM, duplicates) was 98%, the “% Remaining” value (CYP3A4; CYP3A4-Testosterone Activity, risdiplam 0.20 μM, duplicates) was 98% and 96% and the “% Remaining” value (CYP3A4; CYP3A4-Testosterone Activity, risdiplam 0.50 μM, duplicates) was 96% and 95%. The “% Remaining” value (CYP3A4; CYP3A4-Testosterone Activity, risdiplam 1.3 μM, duplicates) was 93% and 92%, the “% Remaining” value (CYP3A4; CYP3A4-Testosterone Activity, risdiplam 3.2 μM, duplicates) was 78% and 79% and the “% Remaining” value (CYP3A4; CYP3A4-Testosterone Activity, risdiplam 8.0 μM, duplicates) was 58%. The “% Remaining” value (CYP3A4; CYP3A4-Testosterone Activity, risdiplam 12.5 μM, duplicates) was 44% and 46%, the maximal inhibition (CYP3A4; midazolam as substrate) was 28% and the maximal inhibition (CYP3A4; testosterone as substrate) was 55%. It also gave an IC50 (CYP3A4; human, microsomes, pH 7.4, IC50, direct, CYP3A4-Testosterone Activity (6β-hydroxylation), testosterone 50 μM) of 11 µM, an activity (CYP3A4; human, microsomes, substrate Midazolam, concentration not given, duplicates) of 72% and an activity (CYP3A4; human, microsomes, substrate Testosterone, concentration not given, duplicates) of 44%. For the same molecule, the “direct inhibition of CYP3A4/5 (in words)” value (CYP3A4; midazolam 1′-hydroxylase and testosterone 6β-hydroxylase, up to 12.5 μM) was “low potential to cause direct inhibition; also recorded: some inhibition”, the IC50 (CYP1A2 [10]) was > 12.5 µM and the “% Control activity at” value (CYP1A2 [11]; direct inhibition, substrate Phenacetin, concentration not given, duplicates) was 101%. For the same molecule, the “reversible (direct) inhibition (in words)” value (CYP1A2 [11]; risdiplam up to 12.5 μM) was “did not show any significant reversible or time-dependent inhibition; also recorded: No significant reversible or time-dependent inhibition; also recorded: No significant reversible inhibition; also recorded: low potential to cause direct or time-dependent inhibition” and the “time-dependent inhibition (in words)” value (CYP2B6 [12]) was “did not show any significant reversible or time-dependent inhibition; also recorded: No significant reversible or time-dependent inhibition; also recorded: No significant time-dependent inhibition; also recorded: low potential to cause direct or time-dependent inhibition”.
